From ChEMBL document CHEMBL1201862, “PubChem BioAssay data set” (2004)
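96-well plates; 48 h exposure; 5 concentrations. Endpoints by linear interpolation between flanking doses. Not reached: highest tested concentration assigned. GI50 is the concentration that inhibits growth by half.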 Calls of active or inactive are those of the source. Cut-off read from the data, not from the text of the source: active = GI50 up to about 1.1 µM and inactive = higher.

Key:
Experiment in all cases: DTP human tumour cell line panel, 48 h
CAKI-1 = tested on: CAKI-1
COLO 205 = tested on: COLO 205
U-251 = tested on: U-251
MDA-MB-231 = tested on: MDA-MB-231
SF-539 = tested on: SF-539
SF-295 = tested on: SF-295
MDA-N = tested on: MDA-N
ACHN = tested on: ACHN
UACC-257 = tested on: UACC-257
HOP-92 = tested on: HOP-92
NCI-H522 = tested on: NCI-H522
786-0 = tested on: 786-0
Malme-3M = tested on: Malme-3M
MDA-MB-435 = tested on: MDA-MB-435
Hs-578T = tested on: Hs-578T
SN12C = tested on: SN12C
IGROV-1 = tested on: IGROV-1
PC-3 = tested on: PC-3
K562 = tested on: K562
NCI-H226 = tested on: NCI-H226

Measured: GI50

CN(C(=O)Cc1cc(Cl)c(Cl)cc1N=C=S)[C@H]1CCCC[C@@H]1N1CCCC1
inactive: CAKI-1 15.8 µM | COLO 205 9.73 µM | U-251 14.9 µM | MDA-MB-231 14.3 µM | SF-539 23.6 µM | SF-295 16.7 µM | MDA-N 14.8 µM | ACHN 15.4 µM | UACC-257 14.6 µM | HOP-92 9.42 µM | NCI-H522 13.1 µM | 786-0 12.7 µM | Malme-3M 17.4 µM | MDA-MB-435 6.49 µM | Hs-578T 15.5 µM | SN12C 16.6 µM | IGROV-1 13.9 µM | PC-3 13.5 µM | K562 2.02 µM

Cc1ccc(NC(=O)C(=O)CC(=O)c2sc(Nc3c(C)cccc3C)nc2C)cc1C
inactive: CAKI-1 > 100 µM | COLO 205 > 100 µM | U-251 > 100 µM | MDA-MB-231 > 100 µM | SF-539 > 100 µM | NCI-H226 > 100 µM | SF-295 > 100 µM | MDA-N > 100 µM | ACHN > 100 µM | UACC-257 > 100 µM | HOP-92 > 100 µM | NCI-H522 71.4 µM | 786-0 > 100 µM | MDA-MB-435 > 100 µM | Hs-578T > 100 µM | SN12C > 100 µM | IGROV-1 > 100 µM | PC-3 > 100 µM | K562 > 100 µM

CCCCNC(=O)c1cc2c(cc1Cl)Sc1nccn1S2(=O)=O
inactive: CAKI-1 18.7 µM | COLO 205 60.7 µM | U-251 54.8 µM | MDA-MB-231 > 100 µM | SF-539 > 100 µM | SF-295 > 100 µM | MDA-N 61.4 µM | ACHN 82 µM | UACC-257 > 100 µM | HOP-92 25.4 µM | NCI-H522 51.8 µM | 786-0 55.6 µM | Malme-3M > 100 µM | MDA-MB-435 87.1 µM | Hs-578T 57.3 µM | SN12C > 100 µM | IGROV-1 > 100 µM | PC-3 55.2 µM | K562 78.5 µM

O=c1c2c([N+](=O)[O-])cccc2nc2[nH]c3ccccc3n12
inactive: CAKI-1 14.6 µM | COLO 205 40.7 µM | U-251 20.2 µM | MDA-MB-231 14.7 µM | SF-539 13.3 µM | NCI-H226 22.3 µM | SF-295 23.1 µM | MDA-N > 75 µM | ACHN 13.9 µM | UACC-257 > 75 µM | HOP-92 19.8 µM | 786-0 29.1 µM | Malme-3M 46 µM | MDA-MB-435 > 75 µM | Hs-578T 26.5 µM | SN12C 25.6 µM | IGROV-1 11.9 µM | PC-3 57.8 µM | K562 > 75 µM

O=C1C(Cl)C2(CC(/C=C/c3ccccc3O)=NN2c2cccc(S(=O)(=O)O)c2)N1c1nc2ccccc2s1 (centres undefined)
inactive: COLO 205 18.9 µM | U-251 16.7 µM | MDA-MB-231 22.5 µM | SF-539 16.9 µM | NCI-H226 18.9 µM | MDA-N 18.6 µM | ACHN 20.2 µM | UACC-257 16.1 µM | HOP-92 19.7 µM | NCI-H522 3.57 µM | 786-0 15.6 µM | Malme-3M 13.8 µM | MDA-MB-435 15.1 µM | Hs-578T 23.9 µM | SN12C 14.2 µM | IGROV-1 14.9 µM | PC-3 24.8 µM | K562 20.2 µM
